Results reported in US20070219203A1, “Arylalkylamino-substituted quinazoline analogues” (Neurogen Corporation, priority 2004, published 2007).

These compounds were tested against T1, human capsaicin receptor (Homo sapiens, UniProt Q8NER1) (assay: Calcium mobilization assay, antagonist activity (Example 6)). Conditions: Table II; 50% decrease in fluorescence response of cells expressing human capsaicin receptor exposed to capsaicin.
T1 construct: expressed in transfected cells
Assay type: cell-based
Method in brief: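 Stable HEK293 clones expressing full-length human receptor, loaded with Fluo-3 in KRH buffer pH 7.4. Test compounds at 1 μM to 5 μM final preincubated 0.5 to 6 hours at room temperature, then challenged with capsaicin at its EC50; IC50 is 50% decrease in FLIPR calcium response.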

T1 sequence (Q8NER1 whole entry): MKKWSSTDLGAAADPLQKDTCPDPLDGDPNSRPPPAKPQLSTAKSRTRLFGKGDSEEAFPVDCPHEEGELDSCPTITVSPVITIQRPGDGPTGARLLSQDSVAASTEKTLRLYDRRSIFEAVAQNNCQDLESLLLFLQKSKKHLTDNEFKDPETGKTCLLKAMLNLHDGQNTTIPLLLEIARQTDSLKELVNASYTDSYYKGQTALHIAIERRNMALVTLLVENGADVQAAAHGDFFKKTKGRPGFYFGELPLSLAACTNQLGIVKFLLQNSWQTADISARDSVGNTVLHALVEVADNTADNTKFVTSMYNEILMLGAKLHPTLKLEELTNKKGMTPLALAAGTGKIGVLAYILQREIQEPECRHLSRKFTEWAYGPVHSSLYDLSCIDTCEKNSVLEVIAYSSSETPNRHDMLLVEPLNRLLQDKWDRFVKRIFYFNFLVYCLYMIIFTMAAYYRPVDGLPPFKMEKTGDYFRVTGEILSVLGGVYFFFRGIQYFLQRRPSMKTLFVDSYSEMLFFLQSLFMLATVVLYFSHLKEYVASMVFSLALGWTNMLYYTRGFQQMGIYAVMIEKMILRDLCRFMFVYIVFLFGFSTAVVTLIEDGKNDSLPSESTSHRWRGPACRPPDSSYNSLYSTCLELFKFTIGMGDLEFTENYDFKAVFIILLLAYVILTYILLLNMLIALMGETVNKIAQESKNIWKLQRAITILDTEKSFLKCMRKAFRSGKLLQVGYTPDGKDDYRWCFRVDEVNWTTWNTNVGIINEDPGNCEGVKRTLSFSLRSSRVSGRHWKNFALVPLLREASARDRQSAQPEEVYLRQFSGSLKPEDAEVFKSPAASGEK

Row | IC50 | Structure (SMILES)
1 | ≤ 1000 nM | C=C(C)CN(CC)Cc1nc(NCCc2ccccc2C)c2ccc(-c3ncccc3C(F)(F)F)cc2n1 [Compound 155, [2-{[Ethyl-(2-methyl-allyl)-amino]-methyl}-7-(3-trifluoromethyl-pyridin-2-yl)-quinazolin-4-yl]-(2-o-tolyl-ethyl)-amine]
2 | ≤ 1000 nM | Cc1ccccc1CCNc1nc(CN(C)C2CCCCC2)nc2cc(-c3ncccc3C(F)(F)F)ccc12 [Compound 158, [2-[(Cyclohexyl-methyl-amino)-methyl]-7-(3-trifluoromethyl-pyridin-2-yl)-quinazolin-4-yl]-(2-o-tolyl-ethyl)-amine]
3 | ≤ 1000 nM | CCN(Cc1nc(NCCc2ccccc2C)c2ccc(-c3ncccc3C(F)(F)F)cc2n1)C1CCCCC1 [Compound 164, [2-[(Cyclohexyl-ethyl amino)-methyl]-7-(3-trifluoromethyl-pyridin-2-yl)-quinazolin-4-yl]-(2-o-tolyl-ethyl)-amine]
4 | ≤ 1000 nM | COCCN(CCOC)Cc1nc(NCCc2ccccc2C)c2ccc(-c3ncccc3C(F)(F)F)cc2n1 [Compound 168, [2-{[Bis-(2-methoxy-ethyl)-amino]-methyl}-7-(3 trifluoromethyl-pyridin-2-yl)-quinazolin-4-yl]-(2-o-tolyl-ethyl)-amine]
5 | ≤ 1000 nM | CCCCCN(CCCCC)Cc1nc(NCCc2ccccc2C)c2ccc(-c3ncccc3C(F)(F)F)cc2n1 [Compound 171, [2-Dipentylaminomethyl-7-(3-trifluoromethyl-pyridin-2-yl)-quinazolin-4-yl]-(2-o-tolyl-ethyl)-amine]
6 | ≤ 1000 nM | CCCCCN(CCCCC)Cc1nc(NCCc2ccccc2Cl)c2ccc(-c3ncccc3C(F)(F)F)cc2n1 [Compound 172, [2-(2-Chloro-phenyl)-ethyl]-[2-dipentylaminomethyl-7-(3-trifluoromethyl-pyridin-2-yl)-quinazolin-4-yl]-amine]
7 | ≤ 1000 nM | CCCCCCN(CCCCCC)Cc1nc(NCCc2ccccc2)c2ccc(-c3ncccc3C(F)(F)F)cc2n1 [Compound 173, [2-Dihexylaminomethyl-7-(3-trifluoromethyl-pyridin-2-yl)-quinazolin-4-yl]-phenethyl-amine]
8 | ≤ 1000 nM | CCCCCCN(CCCCCC)Cc1nc(NCCc2ccccc2C)c2ccc(-c3ncccc3C(F)(F)F)cc2n1 [Compound 174, [2-Dihexylaminomethyl-7-(3-trifluoromethyl-pyridin-2-yl)-quinazolin-4-yl]-(2-o-tolyl-ethyl)-amine]
9 | ≤ 1000 nM | CCCCCCN(CCCCCC)Cc1nc(NCCc2ccccc2Cl)c2ccc(-c3ncccc3C(F)(F)F)cc2n1 [Compound 175, [2-(2-Chloro-phenyl)-ethyl]-[2-dihexylaminomethyl-7-(3-trifluoromethyl-pyridin-2-yl)-quinazolin-4-yl]-amine]
10 | ≤ 1000 nM | CC1CC(C)CN(Cc2nc(NCCc3ccccc3)c3ccc(-c4ncccc4C(F)(F)F)cc3n2)C1 (stereo not drawn) [Compound 176, [2-(3,5-Dimethyl-piperidin-1-ylmethyl)-7-(3-trifluoromethyl-pyridin-2-yl)-quinazolin-4-yl]-phenethyl-amine]
11 | ≤ 1000 nM | Cc1ccccc1CCNc1nc(CN2CC(C)CC(C)C2)nc2cc(-c3ncccc3C(F)(F)F)ccc12 (stereo not drawn) [Compound 177, [2-(3,5-Dimethyl-piperidin-1-ylmethyl)-7-(3-trifluoromethyl-pyridin-2-Yl)-quinazolin-4-yl]-(2-o-tolyl-ethyl)-amine]
12 | ≤ 1000 nM | CC1CC(C)CN(Cc2nc(NCCc3ccccc3Cl)c3ccc(-c4ncccc4C(F)(F)F)cc3n2)C1 (stereo not drawn) [Compound 178, [2-(2-Chloro-phenyl)-ethYl]-[2-(3,5-dimethyl-piperidin-1-ylmethyl)-7-(3-trifluoromethyl-pyridin-2-yl)-quinazolin-4-yl]-amine]
